From paper PMC5419506, “Aromatic amino acids in the cellulose binding domain of Penicillium crustosum endoglucanase EGL1 differentially contribute to the cellulose affinity of the enzyme” (PLoS ONE, 2017)

Target: T1, eGFP-Linker-CBD (CBD domain of Penicillium crustosum endoglucanase EGL1) (Penicillium crustosum, UniProt U6A8H3)
T1 construct: N-terminal eGFP fusion in pET-28a, Ni-column, E. coli BL21(DE3)
T1 sequence (U6A8H3 301-459): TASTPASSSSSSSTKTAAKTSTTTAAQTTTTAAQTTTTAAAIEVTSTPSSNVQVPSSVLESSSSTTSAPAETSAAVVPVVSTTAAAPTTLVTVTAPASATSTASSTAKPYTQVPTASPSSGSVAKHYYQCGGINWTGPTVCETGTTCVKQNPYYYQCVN
Experiment: isothermal titration calorimetry
Details: 20 mM Tris-HCl pH 7.5, 50 mM NaCl; 25 °C; multi-site binding model; unit not given

Ka: 2.3E4
Compound: OC[C@H]1O[C@@H](O[C@H]2[C@H](O)[C@@H](O)[C@H](O[C@H]3[C@H](O)[C@@H](O)[C@H](O[C@H]4[C@H](O)[C@@H](O)[C@H](O[C@H]5[C@H](O)[C@@H](O)C(O)O[C@@H]5CO)O[C@@H]4CO)O[C@@H]3CO)O[C@@H]2CO)[C@H](O)[C@@H](O)[C@@H]1O (stereo partly shown) [cellopentose]
